Like-named read-outs stand apart in the source and are kept apart here.
Columns and labels:
[1] = biological target: T1, integrin α4β7 (RPMI8866 human cells adhering to MAdCAM-1) (Homo sapiens, UniProt P13612+P26010); test: Integrin α4β7-MAdCAM cell adhesion assay (RPMI8866 cells); assay type: cell-based
T1 construct: RMP18866 cells, which express integrin α4β7; host or cells: RPMI8866
T1 sequence (P13612 34-1032): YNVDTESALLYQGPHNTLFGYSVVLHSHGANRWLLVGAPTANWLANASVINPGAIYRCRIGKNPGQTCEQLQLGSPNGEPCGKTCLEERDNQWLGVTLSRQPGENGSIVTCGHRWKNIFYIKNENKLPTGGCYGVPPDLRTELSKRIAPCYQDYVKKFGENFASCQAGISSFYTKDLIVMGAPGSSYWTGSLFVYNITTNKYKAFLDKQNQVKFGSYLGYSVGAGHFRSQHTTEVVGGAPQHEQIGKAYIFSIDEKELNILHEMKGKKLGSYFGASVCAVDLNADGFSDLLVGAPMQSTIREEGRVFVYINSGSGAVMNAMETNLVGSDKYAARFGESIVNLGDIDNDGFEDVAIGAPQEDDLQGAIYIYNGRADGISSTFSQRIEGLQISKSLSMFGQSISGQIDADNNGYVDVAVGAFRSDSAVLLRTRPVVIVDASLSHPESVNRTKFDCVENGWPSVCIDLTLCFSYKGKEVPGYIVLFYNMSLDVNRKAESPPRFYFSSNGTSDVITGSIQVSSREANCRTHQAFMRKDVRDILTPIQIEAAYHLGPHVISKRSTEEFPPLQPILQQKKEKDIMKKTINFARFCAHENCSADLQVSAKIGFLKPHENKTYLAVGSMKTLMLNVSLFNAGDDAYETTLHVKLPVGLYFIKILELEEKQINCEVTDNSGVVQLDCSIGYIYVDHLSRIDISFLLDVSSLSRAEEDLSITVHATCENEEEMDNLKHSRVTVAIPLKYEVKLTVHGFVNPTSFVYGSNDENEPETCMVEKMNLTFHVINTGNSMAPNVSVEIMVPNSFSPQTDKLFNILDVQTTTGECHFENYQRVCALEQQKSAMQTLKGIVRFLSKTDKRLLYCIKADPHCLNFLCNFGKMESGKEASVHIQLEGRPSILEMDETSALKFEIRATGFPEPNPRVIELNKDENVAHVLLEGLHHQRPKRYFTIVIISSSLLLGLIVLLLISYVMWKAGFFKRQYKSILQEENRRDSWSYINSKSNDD
T1 sequence (P26010 20-798): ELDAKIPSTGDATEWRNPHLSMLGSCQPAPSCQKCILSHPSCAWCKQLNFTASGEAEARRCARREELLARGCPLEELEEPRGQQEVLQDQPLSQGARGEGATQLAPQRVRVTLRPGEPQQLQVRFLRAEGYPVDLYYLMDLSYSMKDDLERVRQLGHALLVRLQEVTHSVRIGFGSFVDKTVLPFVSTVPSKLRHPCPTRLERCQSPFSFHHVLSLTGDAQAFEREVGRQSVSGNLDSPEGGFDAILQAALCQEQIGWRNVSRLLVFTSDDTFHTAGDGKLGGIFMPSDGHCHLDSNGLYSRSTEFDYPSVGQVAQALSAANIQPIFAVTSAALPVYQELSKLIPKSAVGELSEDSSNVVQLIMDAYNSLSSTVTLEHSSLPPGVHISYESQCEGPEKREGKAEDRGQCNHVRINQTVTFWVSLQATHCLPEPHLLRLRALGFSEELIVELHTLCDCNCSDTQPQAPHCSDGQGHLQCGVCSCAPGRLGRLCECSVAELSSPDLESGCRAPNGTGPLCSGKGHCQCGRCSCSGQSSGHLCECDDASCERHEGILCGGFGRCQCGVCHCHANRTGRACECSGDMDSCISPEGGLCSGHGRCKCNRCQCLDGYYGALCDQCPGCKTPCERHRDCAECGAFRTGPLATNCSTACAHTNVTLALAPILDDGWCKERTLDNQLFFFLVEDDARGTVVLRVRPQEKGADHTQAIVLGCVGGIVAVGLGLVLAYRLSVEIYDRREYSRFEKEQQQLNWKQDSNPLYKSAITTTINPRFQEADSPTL
Method in brief: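 RPMI8866 cells were loaded with […] calcein in PBS for 30 min at 37° C. After plate washes with PBS, fluorescence of adherent cells was read, and no-cell control wells were subtracted from each test well to build the dose response.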

[2] = biological target: T2, integrin α4β1 (RAMOS human cells adhering to VCAM-1) (Homo sapiens, UniProt P05556+P13612); test: Integrin α4β1-VCAM cell adhesion assay (RAMOS cells); assay type: cell-based
T2 construct: Ramos cells, which express integrin α4β1; host or cells: RAMOS
Experimental: Integrin α4β1-VCAM Cell Adhesion Assay
The plate was incubated overnight at 4° C. and washed twice with 150 μl per well wash buffer (0.05% Tween 20 in PBS), blocked with 250 μl per well blocking buffer (1% non-fat dry milk in PBS), for 1 hour at room temperature. During blocking step, RAMOS cells were resuspended at 10 million cells/ml in PBS containing […] and incubated at 37° C. for 30 min in a 50 ml tube. […] The plate was emptied by inverting and blotting on paper towels and washed manually twice with PBS. […] To calculate the dose response, the fluorescence value of control wells not containing cells was subtracted from each test well.

[3] = RPMI8866 cells adhering to MAdCAM, read-out: RPMI8866 Adhesion α4β7/MAdCAM IC50
[4] = Ramos cells adhering to VCAM, read-out: Ramos Adhesion α4β1/VCAM IC50
[5] = ratio of cell adhesion IC50s, Ramos α4β1/VCAM over RPMI8866 α4β7/MAdCAM
[6] = RPMI8866 cells, read-out: IC50 in the RPMI8866 cell adhesion assay

T2 sequence (P05556 21-798, one chain of several): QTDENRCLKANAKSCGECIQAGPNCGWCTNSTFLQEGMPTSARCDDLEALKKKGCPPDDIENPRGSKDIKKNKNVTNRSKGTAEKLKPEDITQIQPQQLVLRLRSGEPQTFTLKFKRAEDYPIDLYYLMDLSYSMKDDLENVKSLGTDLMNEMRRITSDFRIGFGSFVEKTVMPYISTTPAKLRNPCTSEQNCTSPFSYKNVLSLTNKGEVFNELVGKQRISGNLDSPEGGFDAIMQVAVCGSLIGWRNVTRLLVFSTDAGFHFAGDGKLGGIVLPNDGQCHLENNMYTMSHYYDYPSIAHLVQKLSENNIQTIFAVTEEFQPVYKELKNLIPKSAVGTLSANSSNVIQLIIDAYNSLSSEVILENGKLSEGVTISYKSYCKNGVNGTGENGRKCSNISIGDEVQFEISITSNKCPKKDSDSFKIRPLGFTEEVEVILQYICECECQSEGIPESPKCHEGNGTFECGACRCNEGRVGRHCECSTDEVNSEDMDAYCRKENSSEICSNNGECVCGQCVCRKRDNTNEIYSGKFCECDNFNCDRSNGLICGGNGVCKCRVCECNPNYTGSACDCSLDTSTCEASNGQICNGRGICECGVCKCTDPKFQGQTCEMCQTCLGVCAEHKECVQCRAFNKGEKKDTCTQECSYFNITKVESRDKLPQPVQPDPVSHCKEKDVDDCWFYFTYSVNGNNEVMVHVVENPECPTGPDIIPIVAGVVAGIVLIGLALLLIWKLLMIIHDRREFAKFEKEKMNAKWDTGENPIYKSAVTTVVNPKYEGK

| SMILES | IC50 [1, 3] [nM] | IC50 [2, 4] [nM] | Ratio Ramos/RPMI [2, 5] | also measured |
| --- | --- | --- | --- | --- |
| CC(C)C[C@@H]1NC(=O)c2ccc(-c3ccc(N4CCN(C(=O)COCC(=O)N5CCN(c6ccc(-c7ccc8cc7CNC(=O)[C@@H]7CCCN7[C@H](C(=O)NC(C)(C)C)[C@H](C)NC(=O)[C@H]([C@@H](C)O)NC(=O)[C@H](CC(=O)O)NC(=O)[C@H](CC(C)C)NC8=O)cc6)CC5)CC4)cc3)c(c2)CNC(=O)[C@@H]2CCCN2[C@H](C(=O)NC(C)(C)C)[C@H](C)NC(=O)[C@H]([C@@H](C)O)NC(=O)[C@H](CC(=O)O)NC1=O [Compound 390] | 13 | 857 | 66 | – |
| CC(C)C[C@@H]1NC(=O)c2ccc(-c3ccc(N4CCN(C(=O)CCCCCCCCCCC(=O)N5CCN(c6ccc(-c7ccc8cc7CNC(=O)[C@@H]7CCCN7[C@H](C(=O)NC(C)(C)C)[C@H](C)NC(=O)[C@H]([C@@H](C)O)NC(=O)[C@H](CC(=O)O)NC(=O)[C@H](CC(C)C)NC8=O)cc6)CC5)CC4)cc3)c(c2)CNC(=O)[C@@H]2CCCN2[C@H](C(=O)NC(C)(C)C)[C@H](C)NC(=O)[C@H]([C@@H](C)O)NC(=O)[C@H](CC(=O)O)NC1=O [Compound 392] | 28 | 1840 | 65 | – |
| CC(C)C[C@@H]1NC(=O)C[C@H](CCCCN)N(C)C(=O)[C@H](CCCCN)NC(=O)[C@@H]2CCCN2[C@H](C(=O)NC(C)(C)C)[C@H](C)NC(=O)[C@H]([C@@H](C)O)NC(=O)[C@H](CC(=O)O)NC1=O [Compound 456] | – | – | – | IC50 [1, 6]: 199 nM; selectivity α4β7 versus α4β1 cell adhesion assays ([2]; RPMI8866 vs Ramos cell adhesion): 45 fold; IC50 ([2]; Ramos cells, VCAM, read-out: Ramos Adhesion a4b1/VCAM IC50): 8920 nM; Ratio Ramos/RPMI ([2]; ratio of Ramos a4b1/VCAM adhesion IC50 to RPMI8866 a4b7/MAdCAM adhesion IC50): 45 |
| CC(C)C[C@@H]1NC(=O)c2ccc(-c3ccc(N4CCN(C(=O)[C@H]5CCC[C@H]5C(=O)N5CCN(c6ccc(-c7ccc8cc7CNC(=O)[C@@H]7CCCN7[C@H](C(=O)NC(C)(C)C)[C@H](C)NC(=O)[C@H]([C@@H](C)O)NC(=O)[C@H](CC(=O)O)NC(=O)[C@H](CC(C)C)NC8=O)cc6)CC5)CC4)cc3)c(c2)CNC(=O)[C@@H]2CCCN2[C@H](C(=O)NC(C)(C)C)[C@H](C)NC(=O)[C@H]([C@@H](C)O)NC(=O)[C@H](CC(=O)O)NC1=O [Compound 458] | 42 | 990 | 23 | – |
| CC(C)C[C@@H]1NC(=O)c2ccc(-c3ccc(N4CCN(C(=O)C56CC7CC(C5)CC(C(=O)N5CCN(c8ccc(-c9ccc%10cc9CNC(=O)[C@@H]9CCCN9[C@H](C(=O)NC(C)(C)C)[C@H](C)NC(=O)[C@H]([C@@H](C)O)NC(=O)[C@H](CC(=O)O)NC(=O)[C@H](CC(C)C)NC%10=O)cc8)CC5)(C7)C6)CC4)cc3)c(c2)CNC(=O)[C@@H]2CCCN2[C@H](C(=O)NC(C)(C)C)[C@H](C)NC(=O)[C@H]([C@@H](C)O)NC(=O)[C@H](CC(=O)O)NC1=O [Compound 460] | 62 | 1850 | 30 | – |
| COc1cc(C(=O)N2CCN(c3ccc(-c4ccc5cc4CNC(=O)[C@@H]4CCCN4[C@H](C(=O)NC(C)(C)C)[C@H](C)NC(=O)[C@H]([C@@H](C)O)NC(=O)[C@H](CC(=O)O)NC(=O)[C@H](CC(C)C)NC5=O)cc3)CC2)cc(-c2ccc(C(=O)N3CCN(c4ccc(-c5ccc6cc5CNC(=O)[C@@H]5CCCN5[C@H](C(=O)NC(C)(C)C)[C@H](C)NC(=O)[C@H]([C@@H](C)O)NC(=O)[C@H](CC(=O)O)NC(=O)[C@H](CC(C)C)NC6=O)cc4)CC3)cc2F)c1 [Compound 464] | – | 1550 | – | – |
| CC(C)C[C@@H]1NC(=O)c2ccc(-c3ccc(N4CCN(C(=O)c5cc(F)ccc5-c5ccc(F)cc5C(=O)N5CCN(c6ccc(-c7ccc8cc7CNC(=O)[C@@H]7CCCN7[C@H](C(=O)NC(C)(C)C)[C@H](C)NC(=O)[C@H]([C@@H](C)O)NC(=O)[C@H](CC(=O)O)NC(=O)[C@H](CC(C)C)NC8=O)cc6)CC5)CC4)cc3)c(c2)CNC(=O)[C@@H]2CCCN2[C@H](C(=O)NC(C)(C)C)[C@H](C)NC(=O)[C@H]([C@@H](C)O)NC(=O)[C@H](CC(=O)O)NC1=O [Compound 475] | 18 | – | – | – |
| CC(C)C[C@@H]1NC(=O)c2ccc(-c3ccc(N4CCN(C(=O)CCC(=O)N5CCN(c6ccc(-c7ccc8cc7CNC(=O)[C@@H]7CCCN7[C@H](C(=O)NC(C)(C)C)[C@H](C)NC(=O)[C@H]([C@@H](C)O)NC(=O)[C@H](CC(=O)O)NC(=O)[C@H](CC(C)C)NC8=O)cc6)CC5)CC4)cc3)c(c2)CNC(=O)[C@@H]2CCCN2[C@H](C(=O)NC(C)(C)C)[C@H](C)NC(=O)[C@H]([C@@H](C)O)NC(=O)[C@H](CC(=O)O)NC1=O [Compound 484] | 14 | – | – | – |
| CC(C)C[C@@H]1NC(=O)c2ccc(-c3ccc(N4CCN(C(=O)c5ccccc5-c5ccccc5C(=O)N5CCN(c6ccc(-c7ccc8cc7CNC(=O)[C@@H]7CCCN7[C@H](C(=O)NC(C)(C)C)[C@H](C)NC(=O)[C@H]([C@@H](C)O)NC(=O)[C@H](CC(=O)O)NC(=O)[C@H](CC(C)C)NC8=O)cc6)CC5)CC4)cc3)c(c2)CNC(=O)[C@@H]2CCCN2[C@H](C(=O)NC(C)(C)C)[C@H](C)NC(=O)[C@H]([C@@H](C)O)NC(=O)[C@H](CC(=O)O)NC1=O [Compound 517] | 10 | – | – | IC50 [1, 6]: 9.9 nM |
| CC(C)C[C@@H]1NC(=O)c2ccc(-c3ccc(N4CCN(C(=O)c5cc(C(=O)N6CCN(c7ccc(-c8ccc9cc8CNC(=O)[C@@H]8CCCN8[C@H](C(=O)NC(C)(C)C)[C@H](C)NC(=O)[C@H]([C@@H](C)O)NC(=O)[C@H](CC(=O)O)NC(=O)[C@H](CC(C)C)NC9=O)cc7)CC6)cc(C(=O)N6CCN(c7ccc(-c8ccc9cc8CNC(=O)[C@@H]8CCCN8[C@H](C(=O)NC(C)(C)C)[C@H](C)NC(=O)[C@H]([C@@H](C)O)NC(=O)[C@H](CC(=O)O)NC(=O)[C@H](CC(C)C)NC9=O)cc7)CC6)c5)CC4)cc3)c(c2)CNC(=O)[C@@H]2CCCN2[C@H](C(=O)NC(C)(C)C)[C@H](C)NC(=O)[C@H]([C@@H](C)O)NC(=O)[C@H](CC(=O)O)NC1=O [Compound 520] | 6 | – | – | – |
| CC(C)C[C@@H]1NC(=O)C[C@H](CCCCN)N(C)C(=O)[C@H](CCCCNC(=O)CCCCCC(=O)NCCCC[C@@H]2NC(=O)[C@@H]3CCCN3[C@H](C(=O)NC(C)(C)C)[C@H](C)NC(=O)[C@H]([C@@H](C)O)NC(=O)[C@H](CC(=O)O)NC(=O)[C@H](CC(C)C)NC(=O)C[C@H](CCCCN)N(C)C2=O)NC(=O)[C@@H]2CCCN2[C@H](C(=O)NC(C)(C)C)[C@H](C)NC(=O)[C@H]([C@@H](C)O)NC(=O)[C@H](CC(=O)O)NC1=O [Compound 532] | – | 7150 | – | – |

Source: patent US11713338B2, “Cyclic peptides multimers targeting α-4-β-7 integrin” (priority 2016, dated 2023)
